According to patent US12662479B2 (Foghorn Therapeutics Inc., priority 2020, dated 2026):

Columns and labels:
HiBit-BRM fusion protein = target: T1, HiBit-BRM fusion protein (Homo sapiens, UniProt P51531); test: HiBiT-BRM cell-based degradation assay (Nano-Glo HiBiT Lytic Detection, 24 h); conditions: HeLa cells expressing HiBiT-BRM; for DC50: read-out: BRM HiBit Degradation IC50; for BRM HiBit Degradation Maximum measured: top dose 30 μM
T1 construct: expressed in transfected cells
Method: (§1) Procedure: A stable HeLa cell line expressing HiBiT-BRM was generated. On day 0, 5000 cells were seeded in 40 μL of media into each well of 384-well cell culture plates. On day 1, cells were treated with 120 nL DMSO or 120 nL of 3-fold serially DMSO-diluted compounds (10 points in duplicate with 30 μM as final top dose). Subsequently plates were incubated for 24 h in a standard tissue culture incubator and equilibrated at room temperature for 15 minutes. Nano-Glo HiBiT Lytic Detection System (Promega N3050) reagent was freshly prepared and 20 ul was added to each well. Upon addition of this LgBit-containing reagent, the HiBiT and LgBiT proteins associate to form the luminescent NanoBiT luciferase. The plates were shaken for 10 minutes at room temperature and the bioluminescence read using an EnVision plate reader (PerkinElmer).
(§2) The degradation % was calculated using the following formula: % degradation=100%−100%×(LumSample−LumLC)/(LumHC−LumLC). DMSO treated cells are employed as High Control (HC) and 2 μM of a known BRM/BRG1 degrader standard treated cells are employed as Low Control (LC).

[1] = target: T2, HiBit-BRG1 fusion protein (Homo sapiens, UniProt P51532); test: HiBiT-BRG1 cell-based degradation assay (Nano-Glo HiBiT Lytic Detection, 24 h); conditions: HeLa cells expressing HiBit-BRG1 and LgBit; for DC50: read-out: BRG1 HiBit Degradation IC50; for Dmax: HeLa, top dose 30 μM, read-out: BRG1 HiBit Degradation Maximum measured
T2 construct: expressed in transfected cells
Method: as §1, with “On day 1, cells were treated with 120 nL DMSO or 120 nL of 3-fold serially DMSO-diluted compounds (10 points in duplicate with 30 μM as final top dose). Subsequently plates were incubated for 24 h in a standard tissue culture incubator and equilibrated at room temperature for 15 minutes.” left out
For measurement of BRG1 degradation, a stable HeLa cell line expressing HiBit-BRG1 and LgBit was generated. The same protocol as above was then followed.
as §2

T1 sequence (P51531 whole entry, the tested form may be a part): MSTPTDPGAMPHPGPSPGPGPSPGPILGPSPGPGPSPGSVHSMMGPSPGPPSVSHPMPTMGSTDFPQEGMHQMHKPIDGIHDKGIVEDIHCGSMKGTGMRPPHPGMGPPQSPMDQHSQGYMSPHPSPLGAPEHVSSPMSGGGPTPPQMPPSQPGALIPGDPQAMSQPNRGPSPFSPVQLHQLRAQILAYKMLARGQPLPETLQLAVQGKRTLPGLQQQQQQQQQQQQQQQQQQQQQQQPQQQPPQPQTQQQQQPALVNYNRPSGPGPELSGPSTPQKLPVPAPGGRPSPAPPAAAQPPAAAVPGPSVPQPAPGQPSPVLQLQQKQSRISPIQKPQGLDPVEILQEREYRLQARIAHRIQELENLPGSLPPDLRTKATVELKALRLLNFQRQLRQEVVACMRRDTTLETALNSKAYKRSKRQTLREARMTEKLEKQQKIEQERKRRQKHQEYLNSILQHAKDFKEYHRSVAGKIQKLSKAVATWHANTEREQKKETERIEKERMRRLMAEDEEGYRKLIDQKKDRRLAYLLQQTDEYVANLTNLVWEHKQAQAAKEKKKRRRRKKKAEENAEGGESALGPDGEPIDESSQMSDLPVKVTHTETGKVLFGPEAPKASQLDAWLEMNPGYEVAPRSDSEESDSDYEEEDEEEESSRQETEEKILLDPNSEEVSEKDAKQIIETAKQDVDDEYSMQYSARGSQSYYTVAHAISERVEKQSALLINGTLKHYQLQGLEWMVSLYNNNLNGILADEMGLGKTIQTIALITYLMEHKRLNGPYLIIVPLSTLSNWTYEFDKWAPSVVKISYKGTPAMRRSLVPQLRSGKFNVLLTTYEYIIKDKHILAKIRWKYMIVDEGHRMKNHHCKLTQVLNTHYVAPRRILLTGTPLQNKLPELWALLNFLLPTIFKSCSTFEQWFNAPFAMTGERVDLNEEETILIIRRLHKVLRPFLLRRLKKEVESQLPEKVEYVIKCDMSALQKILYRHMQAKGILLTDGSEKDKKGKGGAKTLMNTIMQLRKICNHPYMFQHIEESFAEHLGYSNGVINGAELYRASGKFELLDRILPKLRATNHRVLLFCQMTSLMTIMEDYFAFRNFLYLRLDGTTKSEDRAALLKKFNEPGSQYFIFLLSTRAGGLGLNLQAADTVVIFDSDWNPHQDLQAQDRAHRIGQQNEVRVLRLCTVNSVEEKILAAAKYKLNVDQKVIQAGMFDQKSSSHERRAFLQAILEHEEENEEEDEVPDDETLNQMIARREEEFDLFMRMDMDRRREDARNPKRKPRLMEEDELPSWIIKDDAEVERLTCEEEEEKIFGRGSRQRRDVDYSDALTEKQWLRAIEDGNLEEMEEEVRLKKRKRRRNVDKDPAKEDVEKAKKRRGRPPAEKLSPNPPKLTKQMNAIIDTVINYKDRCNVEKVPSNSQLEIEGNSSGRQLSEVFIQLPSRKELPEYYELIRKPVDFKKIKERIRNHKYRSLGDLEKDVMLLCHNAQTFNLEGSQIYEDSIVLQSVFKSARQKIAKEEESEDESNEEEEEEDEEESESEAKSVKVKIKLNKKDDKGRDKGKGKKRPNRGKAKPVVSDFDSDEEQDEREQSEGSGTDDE
T2 sequence (P51532 whole entry, the tested form may be a part): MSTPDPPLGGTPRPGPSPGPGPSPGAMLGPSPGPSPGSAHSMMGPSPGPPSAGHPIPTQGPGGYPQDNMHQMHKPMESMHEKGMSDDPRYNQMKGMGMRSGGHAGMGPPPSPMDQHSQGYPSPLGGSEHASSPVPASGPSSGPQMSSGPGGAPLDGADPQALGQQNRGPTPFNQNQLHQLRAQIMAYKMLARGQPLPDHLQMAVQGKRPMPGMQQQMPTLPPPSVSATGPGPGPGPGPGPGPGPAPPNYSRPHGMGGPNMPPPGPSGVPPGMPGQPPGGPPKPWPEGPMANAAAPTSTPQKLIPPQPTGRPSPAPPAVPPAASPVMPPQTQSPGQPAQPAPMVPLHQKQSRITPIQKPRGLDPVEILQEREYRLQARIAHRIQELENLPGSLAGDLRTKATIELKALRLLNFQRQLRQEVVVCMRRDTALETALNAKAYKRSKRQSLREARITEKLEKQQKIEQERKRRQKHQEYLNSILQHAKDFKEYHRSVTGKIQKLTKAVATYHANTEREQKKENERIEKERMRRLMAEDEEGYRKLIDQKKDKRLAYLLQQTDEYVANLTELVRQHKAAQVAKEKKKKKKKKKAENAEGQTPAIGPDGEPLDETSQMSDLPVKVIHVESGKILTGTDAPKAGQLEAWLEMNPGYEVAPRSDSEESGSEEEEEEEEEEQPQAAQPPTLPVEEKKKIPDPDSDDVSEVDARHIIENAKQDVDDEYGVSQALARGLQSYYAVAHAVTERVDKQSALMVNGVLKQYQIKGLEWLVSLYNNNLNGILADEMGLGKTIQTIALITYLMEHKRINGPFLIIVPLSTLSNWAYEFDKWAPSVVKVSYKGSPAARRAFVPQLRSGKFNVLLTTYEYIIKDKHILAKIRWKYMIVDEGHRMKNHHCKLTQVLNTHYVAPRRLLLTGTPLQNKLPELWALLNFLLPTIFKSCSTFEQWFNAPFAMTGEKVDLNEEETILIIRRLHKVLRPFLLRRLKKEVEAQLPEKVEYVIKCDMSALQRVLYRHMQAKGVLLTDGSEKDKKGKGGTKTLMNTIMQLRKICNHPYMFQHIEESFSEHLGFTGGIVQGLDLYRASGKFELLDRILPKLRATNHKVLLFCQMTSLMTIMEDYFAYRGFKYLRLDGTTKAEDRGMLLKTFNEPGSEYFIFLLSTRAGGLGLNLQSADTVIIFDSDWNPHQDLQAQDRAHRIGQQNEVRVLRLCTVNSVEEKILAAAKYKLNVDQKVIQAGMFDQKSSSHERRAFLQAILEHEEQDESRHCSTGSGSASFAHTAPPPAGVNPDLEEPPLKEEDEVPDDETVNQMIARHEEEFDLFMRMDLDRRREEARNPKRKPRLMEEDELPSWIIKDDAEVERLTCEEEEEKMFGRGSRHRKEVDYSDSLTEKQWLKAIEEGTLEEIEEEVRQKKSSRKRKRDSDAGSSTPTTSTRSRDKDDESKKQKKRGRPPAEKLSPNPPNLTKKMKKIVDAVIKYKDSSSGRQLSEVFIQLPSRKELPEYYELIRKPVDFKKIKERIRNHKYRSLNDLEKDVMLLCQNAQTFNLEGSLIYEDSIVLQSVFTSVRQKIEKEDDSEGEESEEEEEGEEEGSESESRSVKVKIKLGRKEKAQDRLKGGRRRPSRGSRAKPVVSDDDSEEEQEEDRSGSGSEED

Row | DC50 (HiBit-BRM fusion protein) [µM] | BRM HiBit Degradation Maximum measured (HiBit-BRM fusion protein) | DC50 [1] [µM] | Dmax [1] [%] | Structure (SMILES)
1 | > 10 | C (‘C’ = Maximum degradation <50%) | > 10 | < 50 | CS(=O)(=O)n1ccc(C(=O)N[C@@H](CCOCCCC(=O)N2CCC(CCCCN3CCN(c4ccc5c(c4)C(=O)N(C4CCC(=O)NC4=O)C5=O)CC3)CC2)C(=O)Nc2nc(-c3ccccc3)cs2)c1 (some centres unmarked) [Compound 257]
2 | > 10 | C (‘C’ = Maximum degradation <50%) | > 10 | < 50 | CN(CCNC(=O)CCCOCC[C@H](NC(=O)c1ccn(S(C)(=O)=O)c1)C(=O)Nc1nc(-c2ccccc2)cs1)CCNc1cccc2c1C(=O)N(C1CCC(=O)NC1=O)C2=O (stereo partly drawn) [Compound 276, (2S)-4-[3-([2-[(2-[[2-(2,6-dioxopiperidin-3-yl)-1,3-dioxoisoindol-4-yl]amino]ethyl)(methyl)amino]ethyl]carbamoyl)propoxy]-2-[(1-methanesulfonylpyrrol-3-yl)formamido]-N-(4-phenyl-1,3-thiazol-2-yl)butanamide; formic acid]
3 | > 10 | C (‘C’ = Maximum degradation <50%) | > 10 | < 50 | CN(CCOCCOCCNc1cccc2c1C(=O)N(C1CCC(=O)NC1=O)C2=O)C(=O)CN(C)c1cc(-c2cccc(-c3csc(NC(=O)CNC(=O)c4ccn(S(C)(=O)=O)c4)n3)c2)ccn1 (centres unmarked) [Compound 84]
4 | > 10 | C (‘C’ = Maximum degradation <50%) | > 10 | < 50 | CS(=O)(=O)n1ccc(C(=O)NCC(=O)Nc2nc(C3CCCN(C(=O)CCCCCCCCCCNc4ccc5c(c4)C(=O)N(C4CCC(=O)NC4=O)C5=O)C3)cs2)c1 (centres unmarked) [Compound 143, N-{4-[1-(11-{[2-(2,6-dioxopiperidin-3-yl)-1,3-dioxo-2,3-dihydro-1H-isoindol-5-yl]amino}undecanoyl)piperidin-3-yl]-1,3-thiazol-2-yl}-2-[(1-methanesulfonyl-1H-pyrrol-3-yl)formamido]acetamide]

The next lines start with the molecule.

Row | Structure (SMILES) | DC50 (HiBit-BRM fusion protein) [µM] | BRM HiBit Degradation Maximum measured (HiBit-BRM fusion protein) | DC50 [1] [µM] | Dmax [1] [%]
5 | Cc1ncsc1-c1ccc(CNC(=O)[C@@H]2C[C@@H](O)CN2C(=O)[C@@H](NC(=O)CN2CC3(CC(C(=O)NCc4cccc(-c5cccc(-c6csc(NC(=O)CNC(=O)c7ccn(S(C)(=O)=O)c7)n6)c5)c4)C3)C2)C(C)(C)C)cc1 [Compound 163, 2-([[(2S)-1-[(2S,4R)-4-hydroxy-2-([[4-(4-methyl-1,3-thiazol-5-yl)phenyl]methyl]carbamoyl)pyrrolidin-1-yl]-3,3-dimethyl-1-oxobutan-2-yl]carbamoyl]methyl)-N-[[3-(2-[2-[(1-methanesulfonylpyrrol-3-yl)formamido]acetamido]-1,3-thiazol-4-yl)-[1,1-biphenyl]-3-yl]methyl]-2-azaspiro[3.3]heptane-6-carboxamide] | 0.1 to 1 | B (‘B’ = Maximum degradation ≥50% and ≤75%) | > 10 | < 50
6 | CS(=O)(=O)n1ccc(C(=O)NCC(=O)Nc2nc(-c3cccc(-c4ccnc(C5(C(=O)N6CC(Oc7ccc8c(c7)C(=O)N(C7CCC(=O)NC7=O)C8=O)C6)CC5)c4)c3)cs2)c1 (centres unmarked) [Compound 141, N-[4-(3-[2-[1-(3-[[2-(2,6-dioxopiperidin-3-yl)-1,3-dioxoisoindol-5-yl]oxy]azetidine-1-carbonyl)cyclopropyl]pyridin-4-yl]phenyl)-1,3-thiazol-2-yl]-2-[(1-methanesulfonylpyrrol-3-yl)formamido]acetamide] | 0.1 to 1 | B (‘B’ = Maximum degradation ≥50% and ≤75%) | > 10 | < 50
7 | Cc1ncsc1-c1ccc(CNC(=O)[C@@H]2C[C@@H](O)CN2C(=O)[C@@H](NC(=O)CCCCCNC(=O)CCCOCC[C@H](NC(=O)c2ccn(S(C)(=O)=O)c2)C(=O)Nc2nc(-c3ccccc3)cs2)C(C)(C)C)cc1 [Compound 251, (2S,4R)-4-hydroxy-1-[(2S)-2-(6-[4-[(3S)-3-[(1-methanesulfonylpyrrol-3-yl)formamido]-3-[(4-phenyl-1,3-thiazol-2-yl)carbamoyl]propoxy]butanamido]hexanamido)-3,3-dimethylbutanoyl]-N-[[4-(4-methyl-1,3-thiazol-5-yl)phenyl]methyl]pyrrolidine-2-carboxamide] | > 10 | C (‘C’ = Maximum degradation <50%) | > 10 | < 50
8 | Cc1ncsc1-c1ccc(CNC(=O)[C@@H]2C[C@@H](O)CN2C(=O)[C@@H](NC(=O)COCC(=O)NCc2cccc(-c3cccc(-c4csc(NC(=O)CNC(=O)c5ccn(S(C)(=O)=O)c5)n4)c3)c2)C(C)(C)C)cc1 [Compound 18, N-[2-[[4-[3-[3-[[[2-[2-[[(1S)-1-[(2S,4R)-4-hydroxy-2-[[4-(4-methylthiazol-5-yl)phenyl]methylcarbamoyl]pyrrolidine-1-carbonyl]-2,2-dimethyl-propyl]amino]-2-oxo-ethoxy]acetyl]amino]methyl]-phenyl]phenyl]thiazol-2-yl]amino]-2-oxo-ethyl]-1-methylsulfonyl-pyrrole-3-carboxamide] | > 10 | C (‘C’ = Maximum degradation <50%) | > 10 | < 50
9 | Cc1ncsc1-c1ccc(CNC(=O)[C@@H]2C[C@@H](O)CN2C(=O)[C@@H](NC(=O)CCCC(=O)N2CCN(c3cc(-c4cccc(-c5csc(NC(=O)CNC(=O)c6ccn(S(C)(=O)=O)c6)n5)c4)ccn3)CC2)C(C)(C)C)cc1 [Compound 79, N-(2-((4-(3-(2-(4-(5-(((S)-1-((2S,4R)-4-hydroxy-2-((4-(4-methylthiazol-5-yl)benzyl)carbamoyl)pyrrolidin-1-yl)-3,3-dimethyl-1-oxobutan-2-yl)amino)-5-oxopentanoyl)piperazin-1-yl)pyridin-4-yl)phenyl)thiazol-2-yl)amino)-2-oxoethyl)-1-(methylsulfonyl)-1H-pyrrole-3-carboxamide] | > 10 | C (‘C’ = Maximum degradation <50%) | > 10 | < 50
10 | COC(=O)N1CCCC(c2csc(NC(=O)[C@H](CCCCNC(=O)CCCCCCCCCCNc3cccc4c3C(=O)N(C3CCC(=O)NC3=O)C4=O)NC(=O)c3ccn(C(C)(C)C)c3)n2)C1 (stereo partly drawn) [Compound 184, methyl 3-[2-[(2S)-2-[(1-tert-butylpyrrol-3-yl)formamido]-6-(11-[[2-(2,6-dioxopiperidin-3-yl)-1,3-dioxoisoindol-4-yl]amino]undecanamido)hexanamido]-1,3-thiazol-4-yl]piperidine-1-carboxylate] | > 10 | C (‘C’ = Maximum degradation <50%) | > 10 | < 50
11 | Cc1ncsc1-c1ccc(CNC(=O)[C@@H]2C[C@@H](O)CN2C(=O)[C@@H](NC(=O)CCCCCNC(=O)CN(C)c2cc(-c3cccc(-c4csc(NC(=O)CNC(=O)c5ccn(S(C)(=O)=O)c5)n4)c3)ccn2)C(C)(C)C)cc1 [Compound 87] | > 10 | C (‘C’ = Maximum degradation <50%) | > 10 | < 50
12 | Cc1ncsc1-c1ccc(CNC(=O)[C@@H]2C[C@@H](O)CN2C(=O)[C@@H](NC(=O)COCCOCCOCCNC(=O)C2(c3cc(-c4cccc(-c5csc(NC(=O)CNC(=O)c6ccn(S(C)(=O)=O)c6)n5)c4)ccn3)CC2)C(C)(C)C)cc1 [Compound 110, N-[2-[[4-[3-[2-[1-[2-[2-[2-[2-[[(1S)-1-[(2S,4R)-4-hydroxy-2-[[4-(4-methylthiazol-5-yl)phenyl]methylcarbamoyl]pyrrolidine-1-carbonyl]-2,2-dimethyl-propyl]amino]-2-oxo-ethoxy]ethoxy]ethoxy]ethylcarbamoyl]-cyclopropyl]-4-pyridyl]phenyl]thiazol-2-yl]amino]-2-oxo-ethyl]-1-methylsulfonyl-pyrrole-3-carboxamide] | 0.1 to 1 | B (‘B’ = Maximum degradation ≥50% and ≤75%) | 0.1 to 1 | > 75
13 | CS(=O)(=O)n1ccc(C(=O)N[C@@H](COCc2ccc(CNC(=O)CCOCCOCCNc3cccc4c3C(=O)N(C3CCC(=O)NC3=O)C4=O)cc2)C(=O)Nc2nc(-c3ccccc3)cs2)c1 (some centres unmarked) [Compound 181] | 0.1 to 1 | B (‘B’ = Maximum degradation ≥50% and ≤75%) | 0.1 to 1 | 50 to 75
14 | Cc1ncsc1-c1ccc(CNC(=O)[C@@H]2C[C@@H](O)CN2C(=O)[C@@H](NC(=O)CCCCCCCCCCCC(=O)NCc2cccc(-c3cccc(-c4csc(NC(=O)CNC(=O)c5ccn(S(C)(=O)=O)c5)n4)c3)c2)C(C)(C)C)cc1 [Compound 114] |  |  |  | > 75
